One series is described as follows: physchem. The source says: The use of thermo-reversible triblock gels (Pluronics) as delivery agents for anti-inflammatories (naproxen and indomethacin), local anesthetics, and anti-cancer agents has been studied (Sharma, P. K. and Bhatia, S. R. Effect of Anti-Inflammatories on Pluronic® F127: Micellar Assembly, Gelation and Partitioning. Int J Pharmaceutics, in press, 2004). An ultraviolet spectroscopy technique has been developed to measure rapidly the solubility and micelle-water partition coefficients of hydrophobic pharmaceuticals in micellar gels and has been applied to PLA-PEO-PLA hydrogels. In addition to evaluating partitioning, release kinetics in PLA-PEO-PLA systems have also been studied.

Series [1] is described as follows: Release kinetics of pharmaceuticals from PLA-PEO-PLA gels at 25° C. It counts as physicochemical. As to conditions: both polymers (1L and 2D/L), FIG. 7A.
The conditions of series [2]: cited from earlier work.

Results on four compounds are retold here after patent US20060018872A1, “Poly(lactic acid) copolymer hydrogels and related methods of drug delivery” (priority 2004, published 2006).

≈ marks a conversion by molar mass, not a printed value. Where a name gives a salt, the structure may show the parent alone.

In the case of `COc1ccc2c(c1)c(CC(=O)O)c(C)n2C(=O)c1ccc(Cl)cc1` [Indomethacin, indomethacin], the micelle-water partition coefficient in the series “physchem” came to 108±8. For the same compound, in “physchem” (water), the solubility was found to be 25 µg/mL (≈ 69.9 µM). Regarding `COC(=O)c1ccc(O)cc1` [methyl paraben], the “release of methyl paraben from PLA-PEO-PLA gels” value in series [1] is “majority of the methyl paraben being quickly released within the first five hours”. For `CC1=C(CC(=O)O)c2cc(F)ccc2/C1=C\c1ccc([S+](C)[O-])cc1` (centres unmarked) [sulindac], the “time of complete release” value in series [2] (from poly(styrene-divinylbenzene) microspheres) is 24 h. For the compound `CCCCNc1ccc(C(=O)OCCN(C)C)cc1` [tetracaine hydrochloride], in series [2] (from poly(DL-lactic-co-glycolic acid)), the release behavior entry is on record as “burst release”.

Usually solubility stands for how much of the substance goes into solution per volume. Lower therefore signals a poorly soluble substance.
